Reference: paper PMC12292992, “Betulinic Acid ω-Triphenylphosphonium Alkyl Esters: Antiproliferative Activities and In Silico Pharmacokinetic Profiles” (Biomedicines, 2025)

Assays:
[1] = tested on: MRC-5 normal human lung fibroblasts; assay: MTT cell viability assay, normal lung fibroblasts; assay type: cell-based; conditions: MRC5, MRC-5, 72 h
Method: (§1) Human cell lines were obtained from the American Type Culture Collection (ATCC, Manassas, VA, USA). Normal lung MRC-5 fibroblasts (ATCC® CCL-171™), SK-MES-1 lung cancer cells (ATCC® HTB-58™), and J82 bladder carcinoma cells (ATCC® HTB-1™) were grown as monolayers in Eagle’s minimum essential medium (MEM) with Earle’s salts, 2 mM L-glutamine, and 1.5 g/L sodium bicarbonate. Gastric epithelial AGS cells (ATCC® CRL-1739™) were grown as monolayers in Ham’s F-12 medium containing 1 mM L-glutamine and 1.5 g/L sodium bicarbonate. Promyelocytic leukemia HL-60 (ATCC® CCL-240™), colorectal adenocarcinoma HCT-15 (ATCC® CCL-225™), metastatic colorectal COLO205 (ATCC® CCL-222™), and breast cancer AU565 (ATCC® CRL-2351™, ER^−-HER2/neu^+) cells were grown in suspension in an RPMI-1640 medium containing 1 mM sodium pyruvate and 2.0 g/L sodium bicarbonate. Human breast cancer MCF-7 (ATCC® HTB-22™, ER^+-HER2/neu^−) and MDA-MB-231 (ATCC® HTB-26™, ER^−-HER2/neu^−) cells were grown as monolayers in DMEM medium. All media were supplemented with 10% heat-inactivated fetal bovine serum (HI-FBS), 100 IU/mL penicillin G, and 100 µg/mL streptomycin. Cells were maintained at 37 °C in a humidified incubator with 5% CO2.
(§2) MRC-5, SK-MES-1, J82, and AGS cells were seeded at a density of 5 × 10^4 cells/mL in 96-well plates. COLO205, HCT-15, MCF-7, MDA-MB-231, and AU565 cells were seeded at 1 × 10^5 cells/mL, while HL-60 cells were plated at 3 × 10^5 cells/mL. A volume of 100 µL of the cell suspension was added to each well. After 24 h, the compounds were added in increasing concentrations (ranging from 0 to 100 µM), and cells were incubated for 24, 48, or 72 h. The compounds were dissolved in DMSO and diluted in complete medium to a final concentration of 0.5% DMSO. Cells treated with 0.5% DMSO in complete medium were used as viability controls (100%). Etoposide (98% purity, Sigma-Aldrich, St. Louis, MO, USA) was used as the reference compound. Each concentration was tested in quadruplicate, and each experiment was performed twice using independent cell preparations. At the end of the incubation period, cell viability was determined using the MTT reduction assay. The results were transformed into percentages relative to controls, and IC50 values were obtained graphically from the dose–response curves. Results are presented as IC50 values ± standard deviation (SD).

AGS cells = assay: MTT cell viability assay, gastric adenocarcinoma; assay type: cell-based; conditions: Homo sapiens, 72 h
Method: as §1, §2

HL-60 cells = assay: MTT cell viability assay, leukemia; assay type: cell-based; conditions: Homo sapiens, HL-60, 72 h
Method: as §1, §2

HCT-15 cells = assay: MTT cell viability assay, colorectal carcinoma; assay type: cell-based, human; conditions: for IC50: Homo sapiens
Method: as §1, §2

COLO205 cells = assay: MTT cell viability assay, metastatic colorectal cancer; assay type: cell-based, human; conditions: for IC50: Homo sapiens, COLO 205
Method: as §1, §2

MCF-7 cells [2] = assay: MTT cell viability assay, mammary carcinoma; assay type: cell-based; conditions: Homo sapiens, MCF7
Method: as §1, §2

MDA-MB-231 cells = assay: MTT cell viability assay, mammary carcinoma; assay type: cell-based; conditions: Homo sapiens
Method: as §1, §2

AU565 cells = assay: Oxygen consumption assay (Clark-type electrode); assay type: cell-based, human; conditions: AU565, 10 and 20 µM
Method: (§3) Oxygen consumption of the tumor cells was measured polarographically using a Clark-type electrode (Yellow Springs Instruments, Dayton, OH, USA) placed horizontally in a cell of 0.6 mL volume at 25 °C, coupled to a YSI monitor (model 53). The electrode signal was recorded in a computer connected to a DI-148U module with a USB interface. Data were acquired using the Windaq Acquisition Waveform Recorder software v3.36 (DataQ Instruments, Akron, OH, USA). The test medium used contained 150 mM NaCl, 5 mM KCl, and 1 mM Tris-HCl, and pH 7.4. 5 mM glutamine was added with the cells and test compounds. Oxygen consumption was recorded when the cell aliquots (6 × 10^6 cells) were added. Oligomycin (1.5 μg/mL) was added as an inhibitor of the Fo subunit of ATP synthase prior to the incorporation of the compounds under study. FCCP (carbonyl cyanide-p-trifluoromethoxyphenylhydrazone, 50 nM) was used prior to the addition of test compounds as an internal control to calibrate the electrode system and confirm the maximum uncoupling capacity of the cells.

MCF-7 cells [3] = assay: Oxygen consumption assay (Clark-type electrode); assay type: cell-based, human; conditions: for oxygen consumption rate: after oligomycin
Method: as §3

C=C(C)[C@@H]1CC[C@]2(C(=O)OCCCC[P+](c3ccccc3)(c3ccccc3)c3ccccc3)CC[C@]3(C)[C@H](CC[C@@H]4[C@@]5(C)CC[C@H](O)C(C)(C)[C@@H]5CC[C@]43C)[C@@H]12 [BA-C4-TPP^+Br^−, 4-Triphenylphosphoniobutyl 3β-hydroxylup-20(29)-en-28-oate bromide]
IC50 [1]: 0.21 ± 0.01 µM | IC50 (AGS cells): 0.35 ± 0.02 µM | IC50 (HL-60 cells): 0.22 ± 0.04 µM | increase in potency compared to non-modified BA scaffold (HCT-15 cells; HCT-15 cells at 72 h): approximately 7 fold | IC50 (HCT-15 cells; HCT-15, 24 h): 1.46 ± 0.17 µM | IC50 (HCT-15 cells; HCT-15, 48 h): 0.61 ± 0.16 µM | IC50 (HCT-15 cells; HCT-15, 72 h): 0.52 ± 0.12 µM | increase in potency compared to non-modified BA scaffold (COLO205 cells; COLO205 cells at 72 h): ~264 fold | IC50 (COLO205 cells; COLO205, 24 h): 0.88 ± 0.22 µM | IC50 (COLO205 cells; COLO205, 48 h): 0.45 ± 0.09 µM | IC50 (COLO205 cells; COLO205, 72 h): 0.13 ± 0.01 µM | IC50 (MCF-7 cells [2]; MCF-7, 24 h): 3.88 ± 0.45 µM | IC50 (MCF-7 cells [2]; MCF-7, 48 h): 0.95 ± 0.34 µM | IC50 (MDA-MB-231 cells; MDA-MB-231, 24 h): 1.7 ± 0.44 µM | IC50 (MDA-MB-231 cells; MDA-MB-231, 48 h): 1.01 ± 0.09 µM | mitochondrial uncoupling effect (AU565 cells): the strongest uncoupler in AU565 cells | oxygen consumption rate (MCF-7 cells [3]; MCF-7, 10 µM compound): 12.57 nmol O2 min^−1 | oxygen consumption rate (MCF-7 cells [3]; MCF-7, 20 µM compound): 21.66 nmol O2 min^−1 | mitochondrial uncoupling effect (MCF-7 cells [3]; MCF-7, 10 and 20 µM): concentration-dependent
